The subject of data set [1] is I.C.R. Swiss albino mice. The experiment in a line: Chemical analgesia, acetic acid writhing technique. The settings on record: 25mg/kg, intraperitoneal; for analgesic activity, acetic acid writhing (in words): compared with dextropropoxyphene; for No. of writhes, mean ± S.E.M.: 20 minutes after acetic acid; for Significance of differences vs Dextropropoxyphene: No. of writhes. The class given is in vivo. As to the method: The analgesic effect was studied on I.C.R. Swiss albino mice with the acetic acid writhing technique. Batches of 10 mice were made.
The products under study were administered intraperitoneally and after 30 minutes 0.25 ml of 1% acetic acid are injected intraperitoneally. A batch of control animals which only receive acetic acid is used. The number of writhes in each mouse is counted 20 minutes after administration of the acetic acid.
(In general: An intraperitoneal irritant provokes the stretching counted in writhing tests.)

The test system of data set [2] is I.C.R. Swiss albino mice. The experiment in a line: Thermal analgesia, hot plate technique at 55° C. The class given is in vivo. The settings on record: 50mg/kg, intraperitoneal; for thermal analgesic activity (in words): compared with dextropropoxyphene / control; for Jumping time, mean ± S.E.M.: 30 minutes. As to the method: The thermal analgesic effect was studied on I.C.R. Swiss albino mice. The hot plate technique was used at 55° C. Batches of 10 mice were made.
The products under study were administered intraperitoneally and after 30 minutes the mice were placed on the hot plate, counting the number of seconds they took to jump. Batches of control animals which are only injected with distilled water are used.

Data set [3] is described as follows: Acute toxicity (LD50, Litchfield-Wilcoxon test). The settings on record: mouse, in vivo, ip; intraperitoneal; deaths counted 48 hours after treatment; fasted mice. On the procedure: Acute toxicity studies were performed on I.C.R. Swiss albino mice of both sexes weighing 30±2 g, kept fasting for 24 hours prior to the experiment. The room temperature and relative humidity were kept constant. The products were administered intraperitoneally, counting the number of deaths 48 hours after the treatment. The calculation of lethal dose 50 (LD50) was made by the Litchfield-Wilcoxon test.

The mark [4] stands for this setting: Table VI, Control 109.9 ± 6.362.
[5] abbreviates: Table VII, Control 109.9 ± 6.362.
Where [6] appears, read: Table III, Control 48.8 ± 5.033.

As to `CN1CCC2(C)CC1Cc1c2sc2ccccc12` (racemic) [Product I, 2,5-dimethyl-benzo[b]thieno[2,3-f]morphan], the “analgesic activity, acetic acid writhing (in words)” value in data set [1] is recorded as “greater analgesic activity then dextropropoxyphene”. Moreover, in data set [1] (Table V, Control 101.4 ± 8.973), the “No. of writhes, mean ± S.E.M.” value stood at 3.1 ± 1.234. In addition, in data set [2], the “thermal analgesic activity (in words)” value was “analgesic activity which is not significantly different from that of dextropropoxyphene”. Besides, the “Jumping time, mean ± S.E.M.” value in data set [2] (Table II, Control 64 ± 7.919) amounted to 168.67 ± 11.334 s. Besides, in data set [2] (Table II, jumping time), the “Significance of differences vs Dextropropoxyphene” value (from here on “Significance of differences”) is on record as “N.S”. This molecule also came in with a 50% lethal dose (LD50) at 48 h in data set [3] of 35.2 mg/kg.

Take `CCC(=O)O[C@](Cc1ccccc1)(c1ccccc1)[C@H](C)CN(C)C` [Dextropropoxyphene, dextropropoxyphene, reference compound]: the “No. of writhes, mean ± S.E.M.” value is on record as 21.5 ± 5.929 in data set [1] (Table V, Control 101.4 ± 8.973); 27.8 ± 8.365 in data set [1] (setting [4]); 27.8 ± 8.365 in data set [1] (setting [5]). Besides, the “Jumping time, mean ± S.E.M.” value in data set [2] (Table II, Control 64 ± 7.919) was found to be 164 ± 7.319 s; in data set [2] (setting [6]), 91.3 ± 7.894 s; in data set [2] (Table IV, Control 48.8 ± 5.033), 91.3 ± 7.894 s.

`CC1=CCN(C)C(Cc2csc3ccccc23)C1` (stereo not drawn) [Product II, 2-(3-benzo[b]thienylmethyl)-1,4-dimethyl-1,2,3,6-tetrahydropyridine]: the “analgesic activity, acetic acid writhing (in words)” value in data set [1] is on record as “not significantly different from that of dextropropoxyphene”. In addition, the “No. of writhes, mean ± S.E.M.” value in data set [1] (setting [4]) is 41.2 ± 6.024. Also, the “Significance of differences” value in data set [1] (Table VI) is “N.S”. Also, the “thermal analgesic activity (in words)” value in data set [2] is listed as “lacking thermal analgesic activity”. In addition, the “Jumping time, mean ± S.E.M.” value in data set [2] (setting [6]) worked out at 63 ± 8.368 s. For the same molecule, in data set [3], the LD50 at 48 h came to 916 mg/kg.

As to `CC1=CC(Cc2csc3ccccc23)N(C)CC1` (stereo not drawn) [Product III, 2-(3-benzo[b]thienylmethyl)-1,4-dimethyl-1,2,5,6-tetrahydropyridine], the “analgesic activity, acetic acid writhing (in words)” value in data set [1] is given as “not significantly different from that of dextropropoxyphene”. In data set [1] (setting [5]), the “No. of writhes, mean ± S.E.M.” value came out at 22.5 ± 6.263. Further, the “Significance of differences” value in data set [1] (Table VII) is reported as “N.S”. Besides, the “thermal analgesic activity (in words)” value in data set [2] was “lacking thermal analgesic activity”. Also, the “Jumping time, mean ± S.E.M.” value in data set [2] (Table IV, Control 48.8 ± 5.033) amounted to 48.9 ± 5.292 s. The LD50 at 48 h in data set [3] worked out at 275 mg/kg.

By LD50 is commonly meant the dose expected to kill half of the subjects tested. High values mean a less toxic substance, low ones a more toxic substance.

The values are drawn from patent US4179565A, “2,5-Dimethyl-benzo[b]-thieno[2,3-f]morphan and precursors thereof” (priority 1977, dated 1979).
